Results from patent US7666906B2, “β-Benzyloxyaspartate derivatives with amino group on benzene ring” (Suntory Holdings Limited, priority 2001, dated 2010).

What was measured:
human EAAT2 = target: T1, human EAAT2 (Homo sapiens, UniProt P43004); assay: inhibition of [14C]glutamate uptake by human EAAT2 expressed on MDCK or COS-1 cells; type: cell-based; settings: 1 μM L-[14C]glutamate, 12 minutes
T1 construct: expressed in transfected cells
Text: (§1) Well-known methods can be used to determine inhibitory activity of the compounds of the invention on glutamate transporters. For example, the compounds of the invention have been confirmed to inhibit uptake of ^14C-labeled glutamate into cells by human EAAT2 and EAAT3 stably expressed on MDCK (Madin-Darby Canine Kidney) cells or transiently expressed on COS-1 cells.
(§2) A known method (Shimamoto, K. et al., Mol. Pharmacol. 53, 195-201, 1998; Bioorg. Med. Chem. Lett. 10, 2407-2410, 2000) was used to measure the inhibitory effect on uptake of [^14C]glutamate by human EAAT2 and EAAT3 stably expressed on MDCK (Madin-Darby Canine Kidney) cells or transiently expressed on COS-1 cells. The glutamate uptake activity was measured by adding 1 μM of L-[^14C]glutamate and a prescribed concentration of sample, incubating for 12 minutes and then lysating the cells, and using a liquid scintillator to determine the radioactivity uptake. The uptake was expressed as a percentage, with 100% being the uptake with no compound (buffer alone) and 0% being the uptake with a sodium-free solution.

human EAAT3 = target: T2, human EAAT3 (Homo sapiens, UniProt P43005); assay: inhibition of [14C]glutamate uptake by human EAAT3 expressed on MDCK or COS-1 cells; type: cell-based; settings: 1 μM L-[14C]glutamate, 12 minutes
T2 construct: expressed in transfected cells
T2 sequence (P43005 1-524): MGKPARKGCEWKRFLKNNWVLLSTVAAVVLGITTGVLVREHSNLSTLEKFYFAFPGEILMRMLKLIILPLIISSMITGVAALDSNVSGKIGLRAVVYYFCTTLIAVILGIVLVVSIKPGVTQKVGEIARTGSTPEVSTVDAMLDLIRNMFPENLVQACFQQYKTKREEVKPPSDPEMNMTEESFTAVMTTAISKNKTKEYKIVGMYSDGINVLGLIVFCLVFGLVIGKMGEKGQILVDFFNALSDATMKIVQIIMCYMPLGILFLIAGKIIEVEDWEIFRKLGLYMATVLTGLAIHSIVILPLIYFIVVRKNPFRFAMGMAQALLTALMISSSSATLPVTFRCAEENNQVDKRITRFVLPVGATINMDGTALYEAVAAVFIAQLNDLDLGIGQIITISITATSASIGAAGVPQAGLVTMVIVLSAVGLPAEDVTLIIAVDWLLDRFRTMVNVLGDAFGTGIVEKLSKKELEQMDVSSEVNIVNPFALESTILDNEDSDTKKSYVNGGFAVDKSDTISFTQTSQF
Text: as §1, §2

[1] = COS-1 cells (transiently expressed), marked *

T1 sequence (P43004 whole entry): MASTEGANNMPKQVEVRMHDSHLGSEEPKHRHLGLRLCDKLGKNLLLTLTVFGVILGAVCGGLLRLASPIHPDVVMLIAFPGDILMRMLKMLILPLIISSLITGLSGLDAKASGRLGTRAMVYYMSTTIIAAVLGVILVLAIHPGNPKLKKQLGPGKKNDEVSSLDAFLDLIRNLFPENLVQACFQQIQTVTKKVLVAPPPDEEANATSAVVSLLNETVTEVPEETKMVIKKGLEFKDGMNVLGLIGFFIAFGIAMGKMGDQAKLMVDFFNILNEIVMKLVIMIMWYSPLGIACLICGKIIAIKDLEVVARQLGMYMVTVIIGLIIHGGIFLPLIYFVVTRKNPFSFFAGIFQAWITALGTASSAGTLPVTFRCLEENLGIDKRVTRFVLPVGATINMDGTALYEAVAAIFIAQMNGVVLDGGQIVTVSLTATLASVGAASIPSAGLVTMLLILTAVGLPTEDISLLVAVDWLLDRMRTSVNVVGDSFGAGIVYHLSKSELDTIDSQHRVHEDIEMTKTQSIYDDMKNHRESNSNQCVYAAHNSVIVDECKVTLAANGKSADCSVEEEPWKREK

Row | IC50 (human EAAT2; stably expressed on MDCK cells) | IC50 (human EAAT3; stably expressed on MDCK cells) | IC50 (human EAAT2; [1]) | IC50 (human EAAT3; [1]) | Structure (SMILES)
1 | 1.9 ± 0.1 nM | 28 ± 1.8 nM |  |  | N[C@H](C(=O)O)[C@H](OCc1cccc(NC(=O)c2ccc(C(F)(F)F)cc2)c1)C(=O)O [CF3-BzA-TBOA, (2S,3S)-3-[3-[N-(4-trifluoromethylbenzoyl)amino]benzyloxy]aspartic acid]
2 | 1000 ± 130 nM | 4100 ± 670 nM |  |  | CC(C)(C)C(=O)Nc1cccc(CO[C@H](C(=O)O)[C@H](N)C(=O)O)c1 [Piv-A-TBOA, (2S,3S)-3-[3-(N-pivaroylamino)benzyloxy]aspartic acid]
3 | 14 ± 1.4 nM | 278 ± 32 nM |  |  | N[C@H](C(=O)O)[C@H](OCc1cccc(NC(=O)c2ccc([N+](=O)[O-])cc2)c1)C(=O)O [NO2-BzA-TBOA, (2S,3S)-3-[3-[N-(4-nitrobenzoyl)amino]benzyloxy]aspartic acid]
4 | 2000 ± 210 nM | 7900 ± 460 nM |  |  | CCC(=O)Nc1cccc(CO[C@H](C(=O)O)[C@H](N)C(=O)O)c1 [Pr-A-TBOA, (2S,3S)-3-[3-(N-propionylamino)benzyloxy]aspartic acid]
5 | 38000 ± 13000 nM | 25000 ± 2400 nM |  |  | N[C@H](C(=O)O)[C@H](OCc1cccc(NC(=O)CCCC[C@@H]2SC[C@@H]3NC(=O)N[C@@H]32)c1)C(=O)O [BioA-TBOA, (2S,3S)-3-[3-(N-biotinylamino)benzyloxy]aspartic acid]
6 | 2100 ± 100 nM | 7900 ± 760 nM |  |  | Nc1cccc(CO[C@H](C(=O)O)[C@H](N)C(=O)O)c1 [A-TBOA, (2S,3S)-3-(3-aminobenzyloxy)aspartic acid]
7 | 49 ± 3.8 nM | 917 ± 30 nM |  |  | COc1ccc(C(=O)Nc2cccc(CO[C@H](C(=O)O)[C@H](N)C(=O)O)c2)cc1OC [DiMeO-BzA-TBOA, (2S,3S)-3-[3-[N-(3,4-dimethoxybenzoyl)amino]benzyloxy]aspartic acid]
8 | 1.2 ± 0.04 nM | 18 ± 1.6 nM |  |  | CCCCCCOc1ccc(C(=O)Nc2cccc(CO[C@H](C(=O)O)[C@H](N)C(=O)O)c2)cc1 [OHex-BzA-TBOA, (2S,3S)-3-[3-[N-(4-n-hexyloxybenzoyl)amino]benzyloxy]aspartic acid]
9 | 21 ± 2.2 nM | 34 ± 19 nM |  |  | N[C@H](C(=O)O)[C@H](OCc1cccc(NC(=O)c2ccc(-c3ccccc3)cc2)c1)C(=O)O [Ph-BzA-TBOA, (2S,3S)-3-[3-[N-(4-phenylbenzoyl)amino]benzyloxy]aspartic acid]
10 | 143 ± 7.9 nM | 529 ± 32 nM |  |  | N[C@H](C(=O)O)[C@H](OCc1cccc(NC(=O)Cc2ccccc2)c1)C(=O)O [PhAcA-TBOA, (2S,3S)-3-[3-(N-phenylacetylamino)benzyloxy]aspartic acid]
11 | 7 ± 0.5 nM | 128 ± 12 nM |  |  | N[C@H](C(=O)O)[C@H](OCc1cccc(NC(=O)c2ccc(OC(F)(F)F)cc2)c1)C(=O)O [OCF3-BzA-TBOA, (2S,3S)-3-[3-[N-(4-trifluoromethoxybenzoyl)amino]benzyloxy]aspartic acid]
12 |  |  | 111000 ± 25000 nM | 295000 ± 118000 nM | CCC(=O)Nc1ccc(CO[C@H](C(=O)O)[C@H](N)C(=O)O)cc1 [p-Pr-A-TBOA, (2S,3S)-3-[4-(N-propionylamino)benzyloxy]aspartic acid]
13 | 22 ± 2.7 nM | 473 ± 13 nM |  |  | N[C@H](C(=O)O)[C@H](OCc1cccc(NC(=O)c2ccc(F)cc2)c1)C(=O)O [F-BzA-TBOA, (2S,3S)-3-[3-[N-(4-fluorobenzoyl)amino]benzyloxy]aspartic acid]
14 | 25 ± 0.5 nM | 182 ± 11 nM |  |  | CC(C)(C)c1ccc(C(=O)Nc2cccc(CO[C@H](C(=O)O)[C@H](N)C(=O)O)c2)cc1 [TBu-BzA-TBOA, (2S,3S)-3-[3-[N-(4-tert-butylbenzoyl)amino]benzyloxy]aspartic acid]
15 | 37 ± 2.5 nM | 356 ± 12 nM |  |  | COc1cccc(C(=O)Nc2cccc(CO[C@H](C(=O)O)[C@H](N)C(=O)O)c2)c1 [m-MeO-BzA-TBOA, (2S,3S)-3-[3-[N-(3-methoxybenzoyl)amino]benzyloxy]aspartic acid]
16 | 7300 ± 1100 nM | 2200 ± 200 nM |  |  | NCCCCCOc1ccc(C(=O)Nc2cccc(CO[C@H](C(=O)O)[C@H](N)C(=O)O)c2)cc1 [A-PenO-BzA-TBOA, (2S,3S)-3-[3-(N-(4-(5-aminopentyloxy)benzoyl)amino)benzyloxy]aspartic acid]
17 | 145 ± 2.2 nM | 1000 ± 42 nM |  |  | COc1ccccc1C(=O)Nc1cccc(CO[C@H](C(=O)O)[C@H](N)C(=O)O)c1 [o-MeO-BzA-TBOA, (2S,3S)-3-[3-[N-(2-methoxybenzoyl)amino]benzyloxy]aspartic acid]
18 | 13000 ± 1100 nM | 13000 ± 1100 nM |  |  | NCCC(=O)Nc1cccc(CO[C@H](C(=O)O)[C@H](N)C(=O)O)c1 [AA-TBOA, (2S,3S)-3-[3-(3-aminopropionylamino)benzyloxy]aspartic acid]
19 | 12 ± 0.5 nM | 266 ± 20 nM |  |  | COc1ccc(C(=O)Nc2cccc(CO[C@H](C(=O)O)[C@H](N)C(=O)O)c2)cc1 [p-MeO-BzA-TBOA, (2S,3S)-3-[3-[N-(4-methoxybenzoyl)amino]benzyloxy]aspartic acid]
20 | 55 ± 5 nM | 726 ± 98 nM |  |  | N[C@H](C(=O)O)[C@H](OCc1cccc(NC(=O)c2ccccc2)c1)C(=O)O [BzA-TBOA, (2S,3S)-3-[3-(N-benzoylamino)benzyloxy]aspartic acid]
21 | 2200 ± 520 nM | 1100 ± 60 nM |  |  | N[C@H](C(=O)O)[C@H](OCc1cccc(NC(=O)c2ccc(OCCCCCNC(=O)CCCC[C@@H]3SC[C@@H]4NC(=O)N[C@@H]43)cc2)c1)C(=O)O [BioA-PenO-BzA-TBOA, (2S,3S)-3-[3-(N-(4-(5-biotynylaminopentyloxy)benzoyl)amino)benzyloxy]aspartic acid]
22 | 6000 ± 1400 nM | 7600 ± 450 nM |  |  | CCC(=O)NCCC(=O)Nc1cccc(COC(C(=O)O)C(N)C(=O)O)c1 [Pr-AA-TBOA, (2S,3S)-3-[3-(3-N-propionylaminopropionylamino)benzyloxy]aspartic acid]
23 | 36 ± 2.9 nM | 1400 ± 99 nM |  |  | N#Cc1ccc(C(=O)Nc2cccc(CO[C@H](C(=O)O)[C@H](N)C(=O)O)c2)cc1 [CN-BzA-TBOA, (2S,3S)-3-[3-[N-(4-cyanobenzoyl)amino]benzyloxy]aspartic acid]
24 | 244 ± 12 nM | 288 ± 8 nM |  |  | N[C@H](C(=O)O)[C@H](OCc1cccc(NC(=O)C2CCCCC2)c1)C(=O)O [CHexcA-TBOA, (2S,3S)-3-[3-(N-cyclohexylcarbonylamino)benzyloxy]aspartic acid]
25 | 6300 ± 390 nM | 10000 ± 930 nM |  |  | N[C@H](C(=O)O)[C@H](OCc1cccc(NC(=O)CCNC(=O)CCCC[C@@H]2SC[C@@H]3NC(=O)N[C@@H]32)c1)C(=O)O [Bio-AA-TBOA, (2S,3S)-3-[3-(3-N-biotinylaminopropionylamino)benzyloxy]aspartic acid]

Row | Structure (SMILES) | IC50 (human EAAT2; stably expressed on MDCK cells) | IC50 (human EAAT3; stably expressed on MDCK cells) | IC50 (human EAAT2; [1]) | IC50 (human EAAT3; [1])
26 | N[C@H](C(=O)O)[C@H](OCc1ccccc1)C(=O)O [TBOA, L-threo-β-benzyloxyaspartate, reference compound] | 1400 ± 120 nM | 1300 ± 110 nM |  | 
